Article PMC3199943, “Screening the MayBridge Rule of 3 Fragment Library for Compounds That Interact with the Trypanosoma brucei myo-Inositol-3-Phosphate Synthase and/or Show Trypanocidal Activity” (Molecular Biology International, 2011)
Structures can show the parent of a compound that is named as a salt. Where two headings read alike, the source gives them in different places.

Assays:
TbINO1 = target: T1, TbINO1 (Trypanosoma brucei brucei, UniProt Q5QQ46); experiment: biochemical; assay type: binding; conditions: for Tb Ino1 Tm Shift [˚C]: Supplementary Table 1, compound 1mM, mean ± SD from Boltzman curve fitting
T1 sequence (Q5QQ46 1-528): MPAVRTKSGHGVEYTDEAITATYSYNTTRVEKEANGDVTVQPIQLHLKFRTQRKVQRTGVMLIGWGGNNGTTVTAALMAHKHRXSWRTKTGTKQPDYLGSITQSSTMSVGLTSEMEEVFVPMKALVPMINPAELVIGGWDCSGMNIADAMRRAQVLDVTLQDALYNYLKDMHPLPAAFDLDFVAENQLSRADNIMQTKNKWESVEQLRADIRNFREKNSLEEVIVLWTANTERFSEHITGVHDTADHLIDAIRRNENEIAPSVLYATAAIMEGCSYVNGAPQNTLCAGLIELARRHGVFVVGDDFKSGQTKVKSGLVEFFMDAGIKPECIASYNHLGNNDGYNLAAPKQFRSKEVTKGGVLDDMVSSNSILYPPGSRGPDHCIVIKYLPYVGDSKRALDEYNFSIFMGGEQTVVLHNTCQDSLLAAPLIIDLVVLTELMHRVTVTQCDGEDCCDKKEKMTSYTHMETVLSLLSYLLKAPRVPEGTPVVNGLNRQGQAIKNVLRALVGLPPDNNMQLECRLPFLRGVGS

A549 cells = experiment: Cytotoxicity against A549 cells, Alamar Blue; assay type: cell-based; conditions: Supplementary Table 1, compound 0.5 mM, percentage of controls (n=1); for viability at 500 µM: Homo sapiens, A549, 65 h
Procedure, shortened: (§1)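 Viability by Alamar Blue (5 h) after ~65 h drug treatment; seeding density 2 × 10^4 cells/well in DMEM supplemented with 10% FCS and 2 mM L-Glutamine.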

HeLa cells = experiment: cells; conditions: for viability at 500 µM / CC50: Homo sapiens, HeLa; for viability at 500 µM: 65 h; for CC50: read-out: HeLa ED50; for HeLa Cells Alamar Blue: Supplementary Table 1, compound 0.5 mM, percentage of controls, mean ± SD (n=3) or SE (n=2)
Procedure, shortened: as §1

[1] = read-out: Tb Ino1 Tm Shift [˚C]
[2] = read-out: HeLa Cells Alamar Blue
[3] = read-out: HeLa Cells Alamar Blue (% survival)

Structure (SMILES)	ΔTm at 1000 µM (TbINO1; [1])	viability at 500 µM (A549 cells)	viability at 500 µM (HeLa cells; [2])	other results
O=C(O)c1ccc2ncccc2c1 [compound 370, quinoline‐6‐carboxylic acid]	0.57 ± 0.04 °C	152%	109 ± 13.1%	–
OCc1ccccc1-n1cccc1 [compound 371, [2‐(1H‐pyrrol‐1‐yl)phenyl]methanol]	0.36 ± 0.07 °C	87.3%	88.5 ± 6.4%	–
OCc1ccc(-n2cccc2)cc1 [compound 372, [4-(1H-pyrrol-1-yl)phenyl]methanol]	–	52.9%	94.9 ± 19.4%	ΔTm at 1000 µM (TbINO1; read-out: TbIno1 Tm shift [°C]): 3.12 ± 0.04 °C; viability at 500 µM (HeLa cells; [3]): 94.9 ± 19.4%; CC50 (HeLa cells): 3300 ± 210 µM
NCc1ccc(-c2ccco2)cc1 [compound 373, [4‐(2‐furyl)phenyl]methylamine]	0.48 ± 0.05 °C	63.4%	82.5 ± 14.3%	–
Cc1ccc2cc(CO)ccc2n1 [compound 374, (2‐methyl‐6‐quinolinyl)methanol]	0.1 ± 0.06 °C	46.3%	53.2 ± 2.6%	–
Nc1cccc(Cn2ccnc2)c1 [compound 377, 3‐(1H‐imidazol‐1‐ylmethyl)aniline]	0.19 ± 0.07 °C	62.4%	103 ± 12.6%	–
NCc1ccc(-n2cccn2)cc1 [compound 378, 4‐(1H‐pyrazol‐1‐yl)benzylamine]	0.19 ± 0.06 °C	95.9%	101 ± 8.3%	–
C#CCN1CCS(=O)(=O)CC1 [compound 379, 4‐(Prop‐2‐ynyl)thiomorpholine 1,1‐dioxide]	–	–	–	Tb Ino1 Tm Shift [˚C] (TbINO1): 0.32 ± 0.08 °C; A549 Cells Alamar Blue (A549 cells): 154 percentage of controls; HeLa Cells Alamar Blue (HeLa cells): 95.6 ± 12.9 percentage of controls
NC(=O)c1ccc(F)c(Cl)c1 [compound 380, 3‐chloro‐4‐fluorobenzamide]	0.31 ± 0.06 °C	95.9%	92.2 ± 13.4%	–
O=C(O)Cc1cccnc1 [compound 381, pyridin‐3‐ylacetic acid hydrochloride]	1.08 ± 0.05 °C	105%	99.2 ± 9.9%	–
OCc1ccc(-c2ccco2)cc1 [compound 383, [4-(2-furyl)phenyl]methanol]	–	89.6%	20 ± 10.6%	ΔTm at 1000 µM (TbINO1; read-out: TbIno1 Tm shift [°C]): 3.45 ± 0.09 °C; viability at 500 µM (HeLa cells; [3]): 20 ± 10.6%; CC50 (HeLa cells): 292 ± 31 µM
N#CCc1nc2ccccc2s1 [compound 387, 2‐(1,3‐benzothiazol‐2‐yl)acetonitrile]	1.29 ± 0.14 °C	81%	86.4 ± 10.4%	–
CSc1ccc(C(=O)O)s1 [compound 389, 5‐(methylthio)thiophene‐2‐carboxylic acid]	–	–	–	Tb Ino1 Tm Shift [˚C] (TbINO1): 0.43 ± 0.05 °C; A549 Cells Alamar Blue (A549 cells): 125.1 percentage of controls; HeLa Cells Alamar Blue (HeLa cells): 104.2 ± 16.4 percentage of controls
NCc1ccc(C(F)(F)F)cc1 [compound 390, 4‐(trifluoromethyl)benzylamine]	0.38 ± 0.08 °C	136%	84.4 ± 6.8%	–
O=C(O)Cc1c[nH]c2ccccc12 [compound 391, 2-(1H-indol-3-yl)acetic acid]	–	134%	42.6 ± 6.4%	ΔTm at 1000 µM (TbINO1; read-out: TbIno1 Tm shift [°C]): 1.67 ± 0.08 °C; viability at 500 µM (HeLa cells; [3]): 42.6 ± 6.4%
COC(=O)c1c[nH]c2ccccc12 [compound 392, methyl 1H‐indole‐3‐carboxylate]	0.22 ± 0.06 °C	88.1%	110 ± 3.7%	–
Cn1ccc2cc(C(=O)O)ccc21 [compound 394, 1‐methyl‐1H‐indole‐5‐carboxylic acid]	0 °C	82%	95 ± 12.2%	–
Cn1c(=O)cc(O)c2ccccc21 [compound 395, 4-hydroxy-1-methyl-1,2-dihydroquinolin-2-one]	–	174%	93 ± 0.3%	ΔTm at 1000 µM (TbINO1; read-out: TbIno1 Tm shift [°C]): 1.62 ± 0.03 °C; viability at 500 µM (HeLa cells; [3]): 93 ± 0.3%
COC(=O)c1cccc2cc[nH]c12 [compound 396, methyl 1H‐indole‐7‐carboxylate]	0.12 ± 0.11 °C	164%	36.5 ± 11.9%	–
Cn1ccc2c(C(=O)O)cccc21 [compound 399, 1‐methyl‐1H‐indole‐4‐carboxylic acid]	0.63 ± 0.07 °C	123%	99.3 ± 14.2%	–
CC(=O)Nc1ccc2c(c1)CCC2 [compound 400, N1‐(2,3‐dihydro‐1H‐inden‐5‐yl)acetamide]	0.12 ± 0.07 °C	99.3%	23.9 ± 13.6%	–

Structure (SMILES)	ΔTm at 1000 µM (TbINO1; [1])	viability at 500 µM (A549 cells)	viability at 500 µM (HeLa cells; [2])	other results
CCOC(=O)C1CSCCN1 (stereo not drawn) [compound 402, ethyl thiomorpholine‐3‐carboxylate]	0.45 ± 0.08 °C	95.2%	107 ± 18.3%	–
Nc1cccc(-c2cccs2)c1 [compound 403, 3‐(2‐thienyl)aniline]	0.04 ± 0.04 °C	52.3%	49.1 ± 15.7%	–
Nc1cccc(-c2ccsc2)c1 [compound 404, 3‐thien‐3‐ylaniline]	0.17 ± 0.05 °C	83.3%	89.4 ± 17.7%	–
O=C1CC(C(=O)O)c2ccccc21 (stereo not drawn) [compound 409, 3‐oxoindane‐1‐carboxylic acid]	0.03 ± 0.07 °C	92%	107 ± 10.9%	–
O=C(O)Cc1coc2ccccc12 [compound 410, benzo[b]furan‐3‐ylacetic acid]	0.8 ± 0.07 °C	97.4%	54.1 ± 10.3%	–
NCc1ccc(N2CCCC2)cc1 [compound 414, [4‐(1‐pyrrolidinyl)phenyl]methanamine]	0.14 ± 0.07 °C	96.8%	68 ± 13.7%	–
Nc1cccc(CN2CCCC2)c1 [compound 415, 3‐(pyrrolidin‐1‐ylmethyl)aniline]	0.34 ± 0.06 °C	107%	57.8 ± 4.5%	–
Nc1ccccc1OC(F)(F)F [compound 418, 2‐(trifluoromethoxy)aniline]	0.14 ± 0.07 °C	97.9%	99.1 ± 14.1%	–
Nc1cc(F)ccc1-n1ccnc1 [compound 420, 5‐fluoro‐2‐(1H‐imidazol‐1‐yl)aniline]	0.36 ± 0.07 °C	100%	98.2 ± 10.9%	–
OCc1ccc(N2CCCC2)cc1 [compound 427, [4‐(1‐pyrrolidinyl)phenyl]methanol]	0.35 ± 0.06 °C	64.2%	59.8 ± 14.4%	–
OCc1cccc(N2CCCC2)c1 [compound 428, (3‐pyrrolidin‐1‐ylphenyl)methanol]	0.44 ± 0.07 °C	81.2%	12.6 ± 5.6%	–
CC(=O)c1ccc2c(c1)OCCO2 [compound 430, 1‐(2,3‐dihydro‐1,4‐benzodioxin‐6‐yl)ethan‐1‐one]	–	–	–	Tb Ino1 Tm Shift [˚C] (TbINO1): 0.13 ± 0.08 °C; A549 Cells Alamar Blue (A549 cells): 101.8 percentage of controls; HeLa Cells Alamar Blue (HeLa cells): 91.1 ± 12.8 percentage of controls
OCc1cccnc1N1CCCC1 [compound 440, [2‐(1‐pyrrolidinyl)‐3‐pyridinyl]methanol]	0.78 ± 0.08 °C	94%	74.6 ± 7.5%	–
Nc1cccc(N2CCOCC2)c1 [compound 441, 3‐morpholin‐4‐ylaniline]	0.27 ± 0.08 °C	85%	77.7 ± 16.7%	–
O=C(O)c1ccc2ncsc2c1 [compound 444, 1,3‐benzothiazole‐6‐carboxylic acid]	0.73 ± 0.06 °C	63.5%	92 ± 9.7%	–
O=C(O)c1cc2cccnc2s1 [compound 445, thieno[2,3‐b]pyridine‐2‐carboxylic acid]	0.61 ± 0.08 °C	45.2%	88 ± 8.1%	–
Cn1nc(-c2cccs2)cc1N [compound 450, 1‐methyl‐3‐(2‐thienyl)‐1H‐pyrazol‐5‐amine]	–	–	–	Tb Ino1 Tm Shift [˚C] (TbINO1): 1.1 ± 0.06 °C; A549 Cells Alamar Blue (A549 cells): 90.7 percentage of controls; HeLa Cells Alamar Blue (HeLa cells): 89.3 ± 5.5 percentage of controls
Cc1ccc(C)c(C(O)C(=O)O)c1 (stereo not drawn) [compound 454, 2‐(2,5‐dimethylphenyl)‐2‐hydroxyacetic acid]	–	–	–	Tb Ino1 Tm Shift [˚C] (TbINO1): 0.02 ± 0.06 °C; A549 Cells Alamar Blue (A549 cells): 60.8 percentage of controls; HeLa Cells Alamar Blue (HeLa cells): 96.8 ± 12.7 percentage of controls
OCc1ccc(-c2ccco2)s1 [compound 458, [5‐(2‐furyl)thien‐2‐yl]methanol]	0.6 ± 0.02 °C	73.6%	94 ± 12.5%	–
CC(=O)CSc1ccc(C)cc1 [compound 460, 1‐[(4‐methylphenyl)thio]acetone]	0.46 ± 0.07 °C	96.9%	97 ± 2.5%	–
